Data: patent US20260224688A1, “HELPER LIPIDS FOR NUCLEIC ACID DELIVERY” (SANOFI PASTEUR INC., priority 2023, published 2026)
Values joined by “and” are separate entries in the source; they are usually repeats but may differ in a detail not shown here. Identical values can stand only once.

Key:
hEPO [1] = experiment: IV delivery using phosphatidylcholine helper lipids (EPO expression); type: in vivo, female BALB/cJ mice; details: cationic lipid CL-0137, helper lipid 13.5 mol %; 0.017 μg EPO mRNA tail vein; 6 hours; DOPE = 1
Description: Lipid nanoparticles were formulated containing the four lipid components shown below, complexed with a hEPO messenger RNA. • Cationic lipid CL-0137, 40 mol % • Helper lipid, 13.5 mol % • Cholesterol, 44.8 mol % • DMG-PEG-2K (1,2-dimyristoyl-rac-glycero-3-methoxypolyethyleneglycol), 1.67 mol %
EPO expression studies were conducted with female BALB/cJ mice 6-8 weeks of age. Mice were dosed with 0.017 μg EPO mRNA LNPs in a volume of 5 ul by a single tail vein injection. Blood samples were taken 6 hours post injection and hEPO levels were measured in the blood serum of the mice using an ELISA assay according to the manufacture's protocol.

hEPO [2] = experiment: IM EPO expression of LNPs containing phosphatidylcholine helper lipids; type: in vivo, female BALB/cJ mice; details: PC/CL-C formulations, helper lipid 13.5 mol %, DOPE = 1
Description: EPO expression studies were conducted with female BALB/cJ mice 6-8 weeks of age. Mice were dosed with […] EPO mRNA in 30 μL of LNPs by a single intramuscular (IM) injection into the gastrocnemius leg muscle. Blood samples were taken 6 and 24 hours post injection and hEPO levels were measured in the blood serum of the mice using an ELISA assay according to the manufacture's protocol. WO2022/099003 A1 also describes an in vivo assay for intramuscular administration (e.g. on page 46, paragraph [00206]).
Lipid nanoparticles were formulated containing the four lipid components shown below, complexed with a hEPO messenger RNA. • Cationic lipid CL-C, 40 mol % • Helper lipid, 13.5 mol % • Cholesterol, 44.8 mol % • DMG-PEG-2K (1,2-dimyristoyl-rac-glycero-3-methoxypolyethyleneglycol), 1.67 mol %
EPO expression studies were performed as described above in Example 3.

hEPO [3] = experiment: IM EPO expression of LNPs containing new helper lipids (hEPO in serum by ELISA); type: in vivo, female BALB/cJ mice; details: for 6-h EPO / 24-h EPO: single IM injection; for 24-h EPO: serum 24 hours post injection
Outline: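 Female BALB/cJ mice aged 6-8 weeks received one intramuscular gastrocnemius injection of […] hEPO mRNA in 30 μL LNPs. The LNPs contained cationic lipid, phospholipid helper, cholesterol and DMG-PEG-2K at 40:30:28.5:1.5 mol %. Serum hEPO was measured by ELISA at 6 and 24 h.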

[4] = Dynamic light scattering of lipid nanoparticles (size, PDI); type: physicochemical; details: LNP with cationic lipid CL-A
Outline: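 LNPs of cationic lipid:DMG-PEG2000:cholesterol:helper lipid at 40:1.5:30:28.5 molar ratio, made by Process A. Diluted in 10% trehalose (about 0.1 mg/ml mRNA) and sized by DLS at 173° backscatter with a 633-nm laser, giving size and PDI.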

hEPO [5] = experiment: IV EPO expression of LNPs (tail vein injection); type: in vivo, female BALB/cJ mice; details: cationic lipid CL-0137, helper lipid 30 mol %; 0.017 μg EPO mRNA tail vein; 6 hours; DOPE = 1
Outline: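 Female BALB/cJ mice (6-8 weeks) received a single tail-vein injection of 0.017 μg hEPO mRNA in LNPs (cationic lipid CL-0137/helper lipid/cholesterol/DMG-PEG-2K, 40:30:28.5:1.5 mol %). Serum hEPO was measured by ELISA on blood taken 6 h post-dose.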

[6] = mRNA encapsulation efficiency of lipid nanoparticles; type: physicochemical; details: LNP with cationic lipid CL-A
Outline: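 Encapsulation by RiboGreen assay run with and without 0.1% Triton-X 100. LNPs made by ethanolic lipid mixing with acidic aqueous mRNA, molar ratio 40:1.5:30:28.5 (cationic lipid:DMG-PEG2000:cholesterol:helper lipid), ultrafiltered/diafiltered, stored at −80° C. Size/PdI by dynamic light scattering after dilution in 10% trehalose to about 0.1 mg/ml mRNA.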

| Structure (SMILES) | Normalized mean IV EPO expression using PC LNPs (hEPO [1]) | Normalized Mean EPO expression (hEPO [2]) | further results |
| --- | --- | --- | --- |
| CCCCCCCCC(CCCCCCCC)OC(=O)CCCCCCCC(=O)O[C@@H](COC(=O)CCCCCCC(=O)OC(CCCCCCCC)CCCCCCCC)COP(=O)(O)OCC[N+](C)(C)C [Compound 46, (S)-3-((8-(Heptadecan-9-yloxy)-8-oxooctanoyl)oxy)-2-((9-(heptadecan-9-yloxy)-9-oxononanoyl)oxy)propyl (2-(trimethylammonio)ethyl) phosphate] | 1.34 | 1.1 |  |
| CCCCCCCCC(CCCCCCCC)OC(=O)CCCCCCCCC(=O)OC[C@@H](COP(=O)(O)OCC[N+](C)(C)C)OC(=O)CCCCCCC(=O)OC(CCCCCCCC)CCCCCCCC [Compound 52, (S)-3-((10-(Heptadecan-9-yloxy)-10-oxodecanoyl)oxy)-2-((8-(heptadecan-9-yloxy)-8-oxooctanoyl)oxy)propyl (2-(trimethylammonio)ethyl) phosphate] | 1.53 | 1 |  |
| CCCCCCCCC(CCCCCCCC)OC(=O)CCCCCCC(=O)O[C@@H](COC(=O)CCCCC(=O)OC(CCCCCCCC)CCCCCCCC)COP(=O)(O)OCC[N+](C)(C)C [Compound 48, (S)-3-((6-(Heptadecan-9-yloxy)-6-oxohexanoyl)oxy)-2-((8-(heptadecan-9-yloxy)-8-oxooctanoyl)oxy)propyl (2-(trimethylammonio)ethyl) phosphate] | 1.08 | 1.1 |  |
| CCCCCCCCC(CCCCCCCC)OC(=O)CCCCCCCCC(=O)O[C@@H](COC(=O)CCCCCCC(=O)OC(CCCCCCCC)CCCCCCCC)COP(=O)(O)OCC[N+](C)(C)C [Compound 44, (S)-2-((10-(Heptadecan-9-yloxy)-10-oxodecanoyl)oxy)-3-((8-(heptadecan-9-yloxy)-8-oxooctanoyl)oxy)propyl (2-(trimethylammonio)ethyl) phosphate] | 1.32 | 1 |  |
| CCCCCCCCC(CCCCCCCC)OC(=O)CCCCCCC(=O)OC[C@@H](COP(=O)([O-])OCC[N+](C)(C)C)OC(=O)CCCCCCC(=O)OC(CCCCCCCC)CCCCCCCC [Compound 42, (S)-2,3-Bis((8-(heptadecan-9-yloxy)-8-oxooctanoyl)oxy)propyl (2-(trimethylammonio)ethyl) phosphate] | 1.16 | 1.1 |  |
| CCCCCCCC/C=C\CCCCCCCC(=O)OC[C@H](COP(=O)(O)OCCN)OC(=O)CCCCCCC/C=C\CCCCCCCC [DOPE, dioleoylphosphatidylethanolamine, reference compound] | 1 | 1 | 6-h EPO (hEPO [3]; CL-A LNP, 0.1 μg EPO mRNA in 30 μL, serum 6 hours post injection): 26.23 ng/mL; 24-h EPO (hEPO [3]; CL-A LNP): 19.128 ng/mL; 6-h EPO (hEPO [3]; CL-B LNP, serum 6 hours post injection): 19.62 ng/mL; 24-h EPO (hEPO [3]; CL-B LNP): 15.03 ng/mL; 6-h EPO (hEPO [3]; CL-C LNP): 16.38 ng/mL; 6-h EPO (hEPO [3]; CL-C LNP, (6-h)): 20.96 ng/mL; Normalized Mean EPO expression (hEPO [3]; helper lipid CL-C formulations, IM, DOPE = 1): 1; Polydispersity Index (PDI) [4]: 0.06 and 0.100; Size ([4]; hEPO mRNA, 40:30:28.5:1.5): 129 nm and 119 nm; Normalized Mean IV EPO expression (hEPO [5]): 1; Encapsulation efficiency (EE) [6]: 91% |
